# According to patent US5686424A, “2-oxoethyl derivatives as immunosuppressants” (Miles Inc., priority 1995, dated 1997):
# Molecular target: FKBP (Homo sapiens, UniProt P62942)
# Assay: PPIase Inhibition Assay
# Assay type: biochemical
# Settings: concentration of inhibitor required for 50% inhibition of enzyme activity; FKBP, substrate Succinyl-Ala-Phe-Pro-Phe-para-nitroanilide; TABLE I
# How it was run: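 Chymotrypsin-coupled isomerization of Succinyl-Ala-Phe-Pro-Phe-para-nitroanilide by FKBP in ice-cold 25 mM HEPES pH 7.8, 100 mM NaCl, compound in DMSO. A390 followed 90 sec; first-order rate constants give % activity remaining after subtracting uncatalyzed rate; IC50 by linear regression of V-/V+ versus concentration.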
# Chain of FKBP (P62942 whole entry): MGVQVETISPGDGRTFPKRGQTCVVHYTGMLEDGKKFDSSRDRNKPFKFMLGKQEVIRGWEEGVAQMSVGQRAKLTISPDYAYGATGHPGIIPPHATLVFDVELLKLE
row,Structure (SMILES),IC50 [nM]
1,"CC[C@H](C)[C@H](NC(=O)[C@@H]1CCCN1CC(=O)C1CC2CC(C1C)C2(C)C)C(=O)NCc1ccccc1 (stereo partly drawn) [Example 41, L-Isoleucine, N-[1-[2-(2,6,6-Trimethyl-Bicyclo[3.1.1]hept-3-yl)-2-Oxoethyl]-L-Prolyl] Benzylamide]",< 5000
2,"O=C(CC(NC(=O)[C@@H]1CCCN1CC(=O)C12CC3CC(CC(C3)C1)C2)c1ccccc1)NCc1ccccc1 (stereo partly drawn) [Example 63, L-β-Phenylalanine, N-[1-(2-Adamantan-1-yl-2-Oxoethyl)-L-Prolyl] Benzylamide]",300
3,"CC[C@H](C)[C@H](NC(=O)[C@@H]1CCCN1CC(=O)NC1C2CC3CC(C2)CC1C3)C(=O)NCc1ccccc1 (stereo partly drawn) [Example 90, L-Isoleucine, N-[1-(Adamantan-2-ylcarbamoylmethyl)-L-Prolyl] Benzylamide]",< 5000
4,"CC[C@H](C)[C@H](NC(=O)[C@@H]1CCCN1CC(=O)O[C@@H](c1ccccc1)C(C)C)C(=O)NCc1ccccc1 [Example 93, L-Isoleucine, N-[1-(2-(2-Methyl-1-(R)-Phenyl-1-Propoxy)-2-Oxoethyl)-L-Prolyl] Benzylamide]",1200

# Continued, values first:
row,IC50 [nM],Structure (SMILES)
1,15000,"CC[C@H](C)[C@H](NC(=O)[C@@H]1CCCN1CC(=O)NC12CC3CC(CC(C3)C1)C2)C(=O)NCc1ccccc1 [Example 39, L-Isoleucine, N-[1-(2-Aminoadamant-1-yl-2-oxoethyl)-L-Prolyl] Benzylamide]"
2,1300,"O=C(NCc1ccccc1)[C@H](COCc1ccccc1)NC(=O)[C@@H]1CCCN1CC(=O)C12CC3CC(CC(C3)C1)C2 [Example 62, L-Serine-(O-Benzyl Ether), N-[1-(2-Adamantan-1-yl-2-Oxoethyl)-L-Prolyl] Benzylamide]"
3,100,"CC[C@H](C)[C@H](NC(=O)[C@@H]1CCCN1CC(=O)C12CC3CC(CC(C3)C1)C2)C(=O)N[C@H](C)c1ccccc1 [Example 66, L-Isoleucine, N-[1-(2-Adamantan-1-yl-2-Oxoethyl)-L-Prolyl] alpha-(R)-methylbenzylamide]"
4,600,"CC[C@H](C)[C@H](NC(=O)[C@@H]1CCCN1CC(=O)O[C@H](c1ccccc1)C(C)C)C(=O)NCc1ccccc1 [Example 92, L-Isoleucine, N-[1-(2-(2-Methyl-1-(S)-Phenyl-1-Propoxy)-2-Oxoethyl)-L-Prolyl] Benzylamide]"
